In the assay the target is Angiotensin-converting enzyme (Homo sapiens, UniProt P12821+Q9BYF1). The assay can be described thus: Inhibitory activity against angiotensin converting enzyme. The class given is protein assay.

Molecules are shown by their SMILES. Peptide text beside a SMILES is read from it. * marks the point of attachment. Bz = O=C(c1ccccc1)*

`O=C(N[C@@H](Cc1ccccc1)C(=O)NCC(=O)N1CCC[C@H]1C(=O)O)c1ccccc1` (Bz-Phe-Gly-Pro-OH) displayed an IC50 of 9.4 µM.

The record behind these values is ChEMBL document CHEMBL1151077, “Peptide mimics of glycylproline as inhibitors of prolidase” (Bioorg Med Chem Lett, 1995).
